The values that follow come from US10526322B2, “Inhibitors of kidney-type glutaminase, GLS-1” (CORNELL UNIVERSITY, priority 2014, dated 2020).

A word on the Kd: it is the concentration at which binding is half-saturated.

This test deals with T1, 488-GAC (mouse kidney-type glutaminase isoform 2, GAC) (Mus musculus, UniProt D3Z7P3).
T1 construct: (residues 72-603) was cloned into a pET23a vector; His-tag with thrombin cleavage site (N, cleaved yes); made in house
T1 sequence (D3Z7P3 72-603 isoform D3Z7P3-2): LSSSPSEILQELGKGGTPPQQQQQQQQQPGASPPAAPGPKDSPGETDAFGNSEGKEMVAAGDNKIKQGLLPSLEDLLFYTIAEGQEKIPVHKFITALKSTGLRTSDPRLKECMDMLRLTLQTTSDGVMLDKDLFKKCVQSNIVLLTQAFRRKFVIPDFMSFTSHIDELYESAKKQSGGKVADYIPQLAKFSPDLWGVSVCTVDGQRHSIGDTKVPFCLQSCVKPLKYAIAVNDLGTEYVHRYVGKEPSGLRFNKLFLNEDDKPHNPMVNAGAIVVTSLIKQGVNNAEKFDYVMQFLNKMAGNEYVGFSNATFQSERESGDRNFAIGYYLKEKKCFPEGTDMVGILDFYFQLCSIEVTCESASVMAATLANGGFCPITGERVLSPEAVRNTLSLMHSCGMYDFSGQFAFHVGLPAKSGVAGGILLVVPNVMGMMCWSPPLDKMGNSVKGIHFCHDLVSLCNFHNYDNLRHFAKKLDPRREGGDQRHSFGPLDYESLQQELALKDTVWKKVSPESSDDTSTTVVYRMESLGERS
Briefly: Real-time binding assay, quenching of 488-GAC fluorescence. To be noted: 10 nM 488-GAC, 96-well plate format; read-out: KD of binding isotherm (fluorescence quenching). As to the method: A plasmid encoding the mouse kidney-type glutaminase isoform 2 (GAC, GenBank Accession No. NP_001106854.1, which is hereby incorporated by reference in its entirety) (residues 72-603) was cloned into a pET23a vector containing an N-terminal histidine (His)-tag and thrombin cleavage site. The expressed protein was purified using Co^2+ affinity beads (Clontech), followed by His-tag cleavage with human thrombin (Haemetologic Technologies) overnight at 4° C., and subsequently purified by anion exchange (GE healthcare) and gel filtration chromatography. […] The stoichiometry of labeling was determined using the probe manufacturer's reported molar absorptivity values and instructions. Briefly, the concentration of GAC was determined by first correcting absorbance at 280 nm (Abs280) for each probe, using the reported correction values (0.11 for AlexaFluor 488 and 0.23 for QSY-9) and their absorbance values at their absorbance maxima (495 nm and 562 nm, respectively). The corrected Abs280 was used along with the experimentally determined molar absorptivity of GAC (ε280=38,850 M−1 cm−1). AlexaFluor 488 and QSY-9 probes were quantified using their respective absorbance maxima and the manufacturer's reported molar absorptivity values (ε495=71,000 M−1 cm−1 and ε562=85,000 M−1 cm−1). […]

Consider `CN(C)c1ccc(C2Nc3ccc4ccccc4c3C3=C2C(=O)CC(C)(C)C3)cc1Br` (stereo not shown) [Compound 968], for which the Kd was found to be 3 µM.
